How the values were obtained:
Type in all cases: cell-based
[1] = test system: dopaminergic neuron induced from human iPS cell (253G1 strain, 201B7 strain); assay: Ability to release dopamine by high-KCl stimulation on day 50 of culture; details: HBSS with 55 mM KCl vs HBSS
Description: Floor plate cells were induced by a method similar to the methods described in Reference Examples 1 to 3, differentiation induction was performed by exchanging the medium with (A) Neuro/B27 added with 3 factors of ascorbic acid, dbcAMP and PD0325901, or (B) Neuro/B27 added with 2 factors of ascorbic acid and dbcAMP from day 13 of culture, and an ability to release dopamine by stimulation with high-KCl was evaluated on day 50 of culture.
The above-mentioned evaluation was performed as follows. The medium of the cells after differentiation induction was exchanged with Neuro/B27, and the cells were cultured overnight. […] For the analysis, a trace biological sample analysis system and HTEC500 (Eicom Corporation), electrochemical detector EPC-500 (Eicom Corporation) were used, and the amount of dopamine contained in the sample was measured according to the manual of Eicom Corporation (Eicom information No. 25). […] However, when differentiation was induced using the aforementioned (A) Neuro/B27, an increase in the amount of dopamine released by stimulation with high-KCl could be detected with good reproducibility even in a different lot.

[2] = test system: floor plate cells induced from human iPS cell (253G1 strain, 201B7 strain); assay: TH and NURR1 expression by quantitative RT-PCR on day 26 of culture; details: dbcAMP and activin A
Description: Floor plate cells were induced by a method similar to the methods described in Reference Examples 1 to 3, the medium was exchanged with Neuro/B27 added with one or more kinds of 0.1 mM ascorbic acid, 0.5 mM dbcAMP, 3 μM PD0325901, and 20 ng/ml activin A (R&D), or Neuro/B27 without addition of ascorbic acid, dbcAMP, PD0325901, and activin A as a control on day 12 of culture, and the cells were cultured for 14 days more (total 26 days). The cells after culture were recovered, and the expression variation of TH and NURR1 was examined by a method similar to Reference Example 3. […] On the other hand, when ascorbic acid, dbcAMP and PD0325901 were added, the expression level was lower at the time point of day 26 of culture than the addition of ascorbic acid, dbcAMP and activin A.

[3] = test system: floor plate cells induced from human iPS cell (253G1 strain, 201B7 strain); assay: Study of various MEK inhibitors (including FGFR inhibitor): NURR1 expression by quantitative RT-PCR on day 45; details: 253G1 strain, added to ascorbic acid and dbcAMP, 3 μM PD0325901, 3 μM PD184352, 10 μM SU5402
Excerpt: Whether midbrain dopaminergic neuron can be induced in a medium containing any of PD184352 (Axon MedChem), SU5402 (FGF receptor (FGFR) inhibitor, Wako Pure Chemical Industries, Ltd.) and PD173074 (FGFR inhibitor, Axon MedChem) instead of PD0325901 in the aforementioned (A) Neuro/B27 was studied.
Floor plate cells were induced by a method similar to the methods described in Reference Examples 1 to 3, the medium was exchanged with Neuro/B27 added with (1) 3 factors of ascorbic acid, dbcAMP and PD0325901, (2) 2 factors of ascorbic acid and dbcAMP, (3) ascorbic acid, dbcAMP and 3 μM PD184352, (4) ascorbic acid, dbcAMP and 10 μM SU5402, or (5) ascorbic acid, dbcAMP and 0.1 μM PD173074 on day 13 of culture, and the cells were cultured at 37° C. under 5% CO2 for not less than 30 days. The medium was exchanged every 3-4 days during the above-mentioned culture periods. On day 45 of culture, the cells were recovered, and expression variation of NURR1 was examined. In 253G1 strain, the expression of NURR1 was elevated by the addition of PD0325901, PD184352 or SU5402 and, in 201B7 strain, the expression of NURR1 was elevated by the addition of all 4 kinds.

[4] = test system: floor plate cells induced from human iPS cell (253G1 strain, 201B7 strain); assay: Immunofluorescent staining of TH, NURR1 and FOXA2 proteins on days 45-52 of culture; details: PD0325901 added to ascorbic acid and dbcAMP (Example 1, (A))
Description: Then, the expression of midbrain dopaminergic neuron markers TH, NURR1 and FOXA2 proteins was examined by immunofluorescent staining using anti-TH antibody, anti-NURR1 antibody and anti-FOXA2 antibody. Floor plate cells were induced by a method similar to the methods described in Reference Examples 1 to 3, differentiation induction was performed by exchanging the medium with (A) Neuro/B27 added with 3 factors of ascorbic acid, dbcAMP and PD0325901, or (B) Neuro/B27 added with 2 factors of ascorbic acid and dbcAMP from day 13 of culture, 4% PFA was added on days 45-52 of culture, and the cells were fixed at room temperature for 30 min. The cells were reacted with anti-TH antibody (AB152, Nihon Millipore K.K.), anti-NURR1 antibody (PP-N1404-00, Perseus Proteomics) and anti-FOXA2 antibody (sc-6544, Santa Cruz) as the primary antibodies, and sequentially reacted with Alexa488-labeled secondary antibody, Alexa568-labeled secondary antibody and Alexa647-labeled secondary antibody, corresponding to the immunized animal of the primary antibody, as the secondary antibodies, and observed under a fluorescence microscope. […]

[5] = test system: floor plate cells induced from human iPS cell (253G1 strain, 201B7 strain); assay: NURR1 expression by quantitative RT-PCR on day 45 after differentiation of floor plate cells; details: 3 μM PD0325901 added in addition to ascorbic acid and dbcAMP
Description: Floor plate cells were induced by a method similar to the methods described in Reference Examples 1 to 3, the medium was exchanged with (A) Neuro/B27 added with 3 factors of 0.1 mM ascorbic acid (SIGMA), 0.5 mM dibutyryl-cAMP (SIGMA, hereinafter to be indicated as dbcAMP) and 3 μM PD0325901, or (B) Neuro/B27 added with 2 factors of 0.1 mM ascorbic acid and 0.5 mM dbcAMP on day 13 of culture, and the cells were cultured at 37° C. under 5% CO2 for not less than 30 days. The medium was exchanged every 3-4 days during the above-mentioned culture periods. On day 45 of culture, the cells were recovered, and expression variation of NURR1 known as a transcription factor extremely important for the differentiation, maturation and maintenance of functions of midbrain dopaminergic neuron was examined.

[6] = test system: cryopreserved day 26 cells induced from human iPS cell (253G1 strain, 201B7 strain); assay: Dopaminergic neuron marker expression by quantitative RT-PCR 2 weeks after thawing of cells cryopreserved on day 26; details: Y27632 10 μM
Description: Midbrain floor plate cells were induced by a method similar to the methods described in Reference Examples 1 to 3, the medium was exchanged with Neuro/B27 added with 0.1 mM ascorbic acid, 0.5 mM dbcAMP, 3 μM PD0325901, and 20 ng/ml activin A (R&D) on day 12 of culture, and the cells were cultured for 14 days more (total 26 days). After culture, the cells were washed with PBS, and dispersed by treating with Accutase (Innovative Cell Technologies) at 37° C. for 20-30 min. After centrifugal washing, the cells were suspended in cell banker 2 (Juji Field Inc.) at a concentration of about 2×10^6 cells/ml/tube, and cryopreserved at −80° C. The cryopreserved cells were thawed by immersion in a thermostatic tank at 37° C. and, after centrifugal washing, seeded in a 96 well plate at a density of 2×10^4 cells per well, and cultured at 37° C. under 5% CO2 for 2 weeks. As the above-mentioned 96 well plate, one coated at 37° C. overnight with Matrigel 1/30-1/40 diluted with DMEM/F12 (Life Technologies Corporation) or Laminin (Trevigen Inc.) diluted with DMEM/F12 at a concentration of 10 μg/ml was used. As the culture medium, Neuro/B27 added with one or more kinds of 0.1 mM ascorbic acid, 0.5 mM dbcAMP, 3 μM PD0325901, and 20 ng/ml activin A, or Neuro/B27 without addition of ascorbic acid, dbcAMP, PD0325901, and activin A as a control was used. […]

[7] = test system: human iPS cell (253G1 strain, 201B7 strain); assay: Time-course expression of differentiation markers by quantitative RT-PCR in the three-step differentiation system; details: conditions excluding only purmorphamine (-Pur)
Description: In step 1, the cells were cultured in Neuro/B27 added with 0.5 μM LDN193189, 10 μM SB431542, 0.5 μM purmorphamine, 200 ng/ml SHH and 1 μM CHIR99021 for 5 days. In step 2, the cells were cultured in Neuro/B27 added with 0.5 μM LDN193189 and 1 μM CHIR99021 for 8 days (total 13 days). In step 3, the cells were cultured in Neuro/B27 added with 0.1 mM ascorbic acid, 0.5 mM dbcAMP and 3 μM PD0325901 for 32 days (total 45 days). After culture, time-course expression variation of various differentiation markers was measured by a method similar to Reference Example 3.
As a control, the cells were cultured under conditions without addition of a differentiation inducing factor (− in Figure), conditions excluding only SHH (−SHH in Figure) or conditions excluding only purmorphamine (−Pur in Figure). Also, the group subjected to differentiation induction under the conditions shown in FIG. 9 from step 2 onward was studied.

O=C(NOC[C@H](O)CO)c1ccc(F)c(F)c1Nc1ccc(I)cc1F [PD0325901, N-[(2R)-2,3-dihydroxypropoxy]-3,4-difluoro-2-[(2-fluoro-4-iodophenyl)amino]-benzamide]
increase in the amount of dopamine released by stimulation with high-KCl [1]: stably detected
expression of TH and NURR1 ([2]; 3 μM PD0325901 added together with ascorbic acid): further elevated highly
expression level of TH and NURR1 ([2]; ascorbic acid, dbcAMP and PD0325901 compared with ascorbic acid): lower
expression of NURR1 [3]: elevated
staining with NURR1 protein [4]: strongly-positive
expression of NURR1 [5]: further elevated highly

C[C@@H](N)[C@H]1CC[C@H](C(=O)Nc2ccncc2)CC1 [Y27632, (R)-(+)-trans-4-(1-aminoethyl)-N-(4-pyridyl)cyclohexanecarboxamide]
expression levels of the markers, presence or absence of Y27632 [6]: scarcely different

c1ccc2c(Oc3nc(Nc4ccc(N5CCOCC5)cc4)c4ncn(C5CCCCC5)c4n3)cccc2c1 [purmorphamine, N-(4-morpholinophenyl)-2-(1-naphthyloxy)-9-cyclohexyl-9H-purin-6-amine]
expression of FOXA2 [7]: low
